For one series, the system named is mouse-skin papillomas. The series is described as follows: Suppression of DMBA-initiated and TPA-promoted mouse-skin papillomas. The class given is in vivo. Conditions: mouse-skin papilloma assay. An excerpt: (§1) Earlier, several alkyl, alkenyl, or alkynyl retinyl ethers had been assayed for inhibition of TPA-induced ornithine decarboxylase (ODC) in mouse skin and for the suppression of DMBA-initiated and TPA-promoted mouse-skin papillomas (Shealy et al., 1997). In comparison with control groups, these retinyl ethers were ineffective. Only a few representatives of the benzyl ethers were selected for tests in these assays. […] Because of these and the earlier results (Shealy et al., 1997), testing of retinyl benzyl ethers in the ODC and papilloma assays was discontinued.

In series [1] the target is T1, cellular retinol-binding protein (CRBP) (Rattus norvegicus, UniProt P02696).
T1 construct: portions of rat testes cytosol (1 mg protein) were incubated; from tissue; host or cells: rat testes cytosol
T1 sequence (P02696 1-135): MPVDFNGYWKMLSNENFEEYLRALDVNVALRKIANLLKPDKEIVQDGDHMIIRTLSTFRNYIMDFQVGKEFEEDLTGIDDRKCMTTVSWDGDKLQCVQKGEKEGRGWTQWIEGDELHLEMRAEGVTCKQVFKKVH
Briefly: Binding to cellular retinol-binding protein (CRBP): inhibition of [3H]retinol binding, sucrose density-gradient sedimentation. Conditions: for Percent Inhibition of [3H] Retinol Binding (CRBP Assay): 150-fold molar excess of unlabelled test retinoid, rat testes cytosol; for binding to CRBP, in words: 150-fold molar excess. Here is the method:
Binding affinities of the retinyl ethers for CRBP were determined by sucrose, density-gradient, sedimentation analysis as described before (Sani et al., 1980). Briefly, portions of rat testes cytosol (1 mg protein) were incubated with [^3 H]retinol (50 pmol) in the presence or absence of a 150-fold molar excess of unlabeled retinol or the test retinoids. The preparations after dialysis were analyzed by 5-20% sucrose density gradient sedimentation. For measuring the competitive binding of the unlabeled retinoids, inhibition of [^3 H]retinol binding to CRBP by unlabeled retinol is regarded as 100%. The mean and standard deviation calculated from the relative inhibitions obtained from multiple determinations were used as the relative binding affinities of the various retinyl ethers.
The group of retinyl benzyl ethers has now been evaluated for binding to CRBP. Binding to CRBP, as defined for Table I, at approximately 60% or higher was rated as strong; at 40-60%, as moderate; at 20-40%, as low.
^a Per cent inhibition of binding of tritiated retinol to CRBP by a
150-fold molar excess of the unlabelled test retinoid (Sani et al., 1980,

Series [2] has as its system TPA-induced ornithine decarboxylase (ODC). Briefly: Inhibition of TPA-induced ornithine decarboxylase (ODC) in mouse skin. The class given is in vivo.
Text: as §1

Series [3] in a line: Stability of retinyl ethers in storage and in solution. The class given is physicochemical. Conditions: weakly acidic ethanol solution.
For series [4], the system named is MNU-induced mammary cancer. Briefly: Short-term (90-day) assay against MNU-induced mammary cancer in rats (Expts. 2 and 3). The class given is in vivo, rat (female Sprague-Dawley). Conditions: for effectiveness compared with RTMBE: 90-day assays, MNU-induced mammary carcinogenesis; for reductions in the number of tumors per rat: 90-day study, 1 and 2 mmol/kg of diet; for effectiveness in reducing the number of tumors per rat / Tumors, % of Control Gp. / Tumors, Avg. No. per Rat: 90 days; for effectiveness in reducing the number of tumors per rat: in feed. As for the experimental part:
(§2) Retinoid diet mixtures were stored at 4° C. […] The animals were palpated for mammary tumors 2×/week. […] Also, five rats/group had complete necropsies performed.
The 2,5-dimethoxybenzyl (3b) and 4-methoxybenzyl (3e) ethers were tested in the same way in a 90-day study. […] The 2,5-dimethybenzyl (3c) and the 2,3-dimethoxybenzyl (3h) ethers, together with RTMBE for comparison, were likewise assayed according to the same methodology. Prior to the beginning of this study, specimens of the retinoid-diet mixtures were placed under the conditions that were employed during the storage and feeding of RTMBE, 3c, and 3h. The specimens were extracted with butanol, and the extracts were analyzed by HPLC. […] Testing of 3c and 3h was discontinued, but the RTMBE study was continued until the duration of the study was 180 days (Table 6). The results were similar to those of Experiment 1 (Table 3). The averages of the number of tumors per rat were reduced by 32-35%; in addition, the averages of the tumor weights per rat was 56-70% lower than the average tumor burden of the control group.
and was continued until the studies of 3b, 3c, 3e, and 3h were terminated
90 days after administration of MNU. The RTMBE experiment was continued
until 180 days after MNU administration (Table VI).
kilogram of Teklad diet.

Series [5] is described as follows: Mammary tissue-to-plasma concentration after intravenous dosing. The class given is in vivo, rat (female Sprague-Dawley). The conditions noted are these: rat, 5 mg/kg i.v., after 24 hr, read-out: ratio of mammary tissue-to-plasma concentrations.
A short description of the next series: in vivo. As for the experimental part:
Toxicological evaluations involving measurement of body weights and observations of clinical signs characteristic of retinoid toxicity were accomplished as previously described (Lin et al., 1996).
RTMBE and two of its analogues, together with RME and RPE, were selected for estimation of their toxicities to mice when administered during 28-29 days by gavage in corn oil (Table 8). Mice were evaluated for changes in body weight and for signs of clinical retinoid toxicity (hypervitaminosis A) including alopecia, scaly skin, and limping. In the first experiment, these retinyl ethers were given at equimicromolar doses at three dose levels. The retinyl benzyl ethers (RTMBE, 3c, and 3e) were then tested at higher doses in a second experiment.

Series [6] can be described thus: Toxicity observations in rats receiving retinoids in feed. The class given is in vivo, rat (Sprague-Dawley). The conditions noted are these: administered in feed. As for the experimental part: as §2

With `COc1ccc(COC/C=C(C)/C=C/C=C(C)/C=C/C2=C(C)CCCC2(C)C)cc1OC` [Compound 3a, Retinyl 3,4-Dimethoxybenzyl Ether], in the series with mouse-skin papillomas, the “inhibition of papilloma formation” value is “ineffective in inhibiting papilloma formation”. The “Percent Inhibition of [3H] Retinol Binding (CRBP Assay)” value (from here on “Percent Inhibition”) in series [1] is reported as 62 ± 8%. Further, the “activity in ODC assay” value in series [2] was “not active in the ODC assay”.
As for `COc1ccc(OC)c(COC/C=C(C)/C=C/C=C(C)/C=C/C2=C(C)CCCC2(C)C)c1` [Compound 3b, Retinyl 2,5-Dimethoxybenzyl Ether], the “inhibition of papilloma formation” value in the series on mouse-skin papillomas is on record as “ineffective in inhibiting papilloma formation”. In series [1], the “binding to CRBP, in words” value is reported as “good binder to CRBP” and the “Percent Inhibition” value came to 59 ± 13%. For the same compound, the “activity in ODC assay” value in series [2] was “not active in the ODC assay”. For the same compound, the “stability in weakly acidic ethanol (formation of anhydroretinol, 4)” value in series [3] worked out at 4 is isolated. In series [4], the “effectiveness compared with RTMBE” value is given as “less effective than was RTMBE”, the “reductions in the number of tumors per rat” value was 26-52% and the “effectiveness in reducing the number of tumors per rat” value is listed as “effective”. Further, in series [4] (Expt. 2, 0.5 mmol/kg diet), the “Tumors, % of Control Gp.” value was determined as 77% and the “Tumors, Avg. No. per Rat” value was found to be 2.7. In series [4] (Expt. 2, 1 mmol/kg diet), the “Tumors, % of Control Gp.” value was determined as 48% and the “Tumors, Avg. No. per Rat” value was 1.7. Further, in series [4] (Expt. 2, 2 mmol/kg diet), the “Tumors, % of Control Gp.” value was found to be 74% and the “Tumors, Avg. No. per Rat” value is 2.6. Besides, in series [5], the Kp at 24 h is 38 ± 20.
Consider `COc1ccc(COC/C=C(C)/C=C/C=C(C)/C=C/C2=C(C)CCCC2(C)C)cc1` [Compound 3e, Retinyl 4-Methoxybenzyl Ether], for which, in series [1], the “binding to CRBP, in words” value is “not conducive to CRBP binding” and the “Percent Inhibition” value is listed as 7 ± 7%. Moreover, in series [4], the “effectiveness compared with RTMBE” value is “less effective than was RTMBE”, the “reductions in the number of tumors per rat” value is recorded as 37-49% and the “effectiveness in reducing the number of tumors per rat” value was “effective”. In series [4] (Expt. 2, 0.5 mmol/kg diet), the “Tumors, % of Control Gp.” value was 71% and the “Tumors, Avg. No. per Rat” value amounted to 2.5. Moreover, in series [4] (Expt. 2, 1 mmol/kg diet), the “Tumors, % of Control Gp.” value stood at 63% and the “Tumors, Avg. No. per Rat” value was found to be 2.2. Also, in series [4] (Expt. 2, 2 mmol/kg diet), the “Tumors, % of Control Gp.” value was 51% and the “Tumors, Avg. No. per Rat” value is on record as 1.8. Also, the Kp at 24 h in series [5] stood at 41 ± 14. Also, the NOAEL (usually the highest tested level that showed no adverse finding) in the series “in vivo” (mouse, in vivo, po) came to 433 mg/kg/day. Besides, the “Toxic Dose” value in the series “in vivo” (oral gavage in corn oil, 28-29 days) is greater than 433 mg/kg day. The “clinical toxicity (alopecia, scaly skin, limping)” value in “in vivo” (oral gavage, up to highest dose (RTMBE and RMoBE-4: Expt. 2)) was “No evidence of clinical toxicity”. Moreover, the “toxicity in MNU-mammary cancer studies” value in series [6] is reported as “not toxic in the mammary carcinogenesis studies”.

For the origin of these results see patent US6281250A, “Retinyl ethers, derivatives and analogues and inhibition of breast carcinogenesis” (Southern Research Institute, priority 1999, dated 2001).
